Assay results from ChEMBL document CHEMBL1201862, “PubChem BioAssay data set” (2004).
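Protocol summary: plate cells (96-well), add compound at 5 concentrations, incubate 48 h, interpolate endpoints linearly. GI50 is the concentration that inhibits growth by half.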 Calls of active or inactive are those of the source. Cut-off read from the data, not from the text of the source: active = GI50 up to about 1.1 µM and inactive = higher.

Key:
Experiment in all cases: NCI anticancer screen, dose series, 48 h
[1] = test system: 786-0
[2] = test system: A498
[3] = test system: A549
[4] = test system: ACHN
[5] = test system: BT-549
[6] = test system: CAKI-1
[7] = test system: CCRF-CEM
[8] = test system: COLO 205
[9] = test system: DU-145
[10] = test system: HCT-116
[11] = test system: HCT-15
[12] = test system: HL-60
[13] = test system: HOP-62
[14] = test system: HOP-92
[15] = test system: HT-29
[16] = test system: Hs-578T
[17] = test system: IGROV-1
[18] = test system: K562
[19] = test system: KM12
[20] = test system: LOX IMVI
[21] = test system: M14
[22] = test system: MCF7
[23] = test system: MDA-MB-231
[24] = test system: MDA-MB-435
[25] = test system: MDA-N
[26] = test system: MOLT-4
[27] = test system: Malme-3M
[28] = test system: NCI-H23
[29] = test system: NCI-H460
[30] = test system: NCI-H522
[31] = test system: NCI/ADR-RES
[32] = test system: OVCAR-3
[33] = test system: OVCAR-4
[34] = test system: OVCAR-5
[35] = test system: OVCAR-8
[36] = test system: PC-3
[37] = test system: RXF 393
[38] = test system: SF-268
[39] = test system: SF-295
[40] = test system: SF-539
[41] = test system: SK-MEL-28
[42] = test system: SK-MEL-2
[43] = test system: SK-MEL-5
[44] = test system: SK-OV-3
[45] = test system: SN12C
[46] = test system: SNB-19
[47] = test system: SNB-75
[48] = test system: SW-620
[49] = test system: T47D
[50] = test system: TK-10
[51] = test system: UACC-257
[52] = test system: UACC-62
[53] = test system: UO-31
[54] = test system: EKVX
[55] = test system: HCC 2998
[56] = test system: NCI-H226
[57] = test system: SR
[58] = test system: U-251
[59] = test system: RPMI-8226

CCOC(=O)c1nc2ccc(C(F)(F)F)cc2nc1Nc1ccc(F)cc1
GI50 [1]: 45.3 µM (inactive)
GI50 [2]: > 100 µM (inactive)
GI50 [3]: 28.8 µM (inactive)
GI50 [4]: > 100 µM (inactive)
GI50 [5]: > 100 µM (inactive)
GI50 [6]: > 100 µM (inactive)
GI50 [7]: > 10 µM (inactive)
GI50 [8]: > 100 µM (inactive)
GI50 [9]: > 100 µM (inactive)
GI50 [10]: > 100 µM (inactive)
GI50 [11]: > 100 µM
GI50 [12]: > 100 µM (inactive)
GI50 [13]: 58.9 µM (inactive)
GI50 [14]: 19 µM (inactive)
GI50 [15]: > 100 µM (inactive)
GI50 [16]: 21.9 µM (inactive)
GI50 [17]: 87.7 µM (inactive)
GI50 [18]: > 100 µM (inactive)
GI50 [19]: > 100 µM (inactive)
GI50 [20]: > 100 µM (inactive)
GI50 [21]: > 100 µM (inactive)
GI50 [22]: > 100 µM (inactive)
GI50 [23]: > 10 µM (inactive)
GI50 [24]: > 100 µM (inactive)
GI50 [25]: > 100 µM (inactive)
GI50 [26]: > 100 µM (inactive)
GI50 [27]: > 100 µM (inactive)
GI50 [28]: 40.3 µM (inactive)
GI50 [29]: 28.9 µM (inactive)
GI50 [30]: 54.6 µM (inactive)
GI50 [31]: > 100 µM (inactive)
GI50 [32]: > 100 µM (inactive)
GI50 [33]: > 100 µM (inactive)
GI50 [34]: > 100 µM (inactive)
GI50 [35]: 47.6 µM (inactive)
GI50 [36]: > 100 µM (inactive)
GI50 [37]: 38.5 µM (inactive)
GI50 [38]: 52.1 µM (inactive)
GI50 [39]: 49.2 µM (inactive)
GI50 [40]: 57.5 µM (inactive)
GI50 [41]: > 100 µM (inactive)
GI50 [42]: > 100 µM (inactive)
GI50 [43]: > 10 µM (inactive)
GI50 [44]: > 100 µM (inactive)
GI50 [45]: > 100 µM (inactive)
GI50 [46]: 43.9 µM (inactive)
GI50 [47]: 32.1 µM (inactive)
GI50 [48]: > 100 µM (inactive)
GI50 [49]: > 100 µM (inactive)
GI50 [50]: 92.3 µM (inactive)
GI50 [51]: > 100 µM (inactive)
GI50 [52]: > 100 µM (inactive)
GI50 [53]: 49.5 µM (inactive)

COc1ccc(CCCNC(=O)Cc2cc(OC)c(OC)cc2CO)cc1OC
GI50 [1]: > 100 µM (inactive)
GI50 [2]: > 100 µM (inactive)
GI50 [3]: > 100 µM (inactive)
GI50 [4]: > 100 µM (inactive)
GI50 [5]: > 100 µM (inactive)
GI50 [6]: > 100 µM (inactive)
GI50 [7]: > 100 µM (inactive)
GI50 [8]: > 100 µM (inactive)
GI50 [9]: > 100 µM (inactive)
GI50 [54]: > 100 µM (inactive)
GI50 [55]: > 100 µM (inactive)
GI50 [10]: > 100 µM (inactive)
GI50 [11]: > 100 µM
GI50 [12]: > 100 µM (inactive)
GI50 [13]: > 100 µM (inactive)
GI50 [14]: > 100 µM (inactive)
GI50 [15]: > 100 µM (inactive)
GI50 [16]: > 100 µM (inactive)
GI50 [17]: > 100 µM (inactive)
GI50 [18]: > 100 µM (inactive)
GI50 [19]: > 100 µM (inactive)
GI50 [20]: > 100 µM (inactive)
GI50 [21]: > 100 µM (inactive)
GI50 [23]: > 100 µM (inactive)
GI50 [24]: > 100 µM (inactive)
GI50 [25]: > 100 µM (inactive)
GI50 [26]: > 100 µM (inactive)
GI50 [27]: > 100 µM (inactive)
GI50 [56]: > 100 µM (inactive)
GI50 [28]: 75 µM (inactive)
GI50 [29]: > 100 µM (inactive)
GI50 [31]: > 100 µM (inactive)
GI50 [32]: > 100 µM (inactive)
GI50 [33]: > 100 µM (inactive)
GI50 [34]: > 100 µM (inactive)
GI50 [35]: > 100 µM (inactive)
GI50 [36]: > 100 µM (inactive)
GI50 [41]: > 100 µM (inactive)
GI50 [42]: > 100 µM (inactive)
GI50 [43]: > 100 µM (inactive)
GI50 [45]: > 100 µM (inactive)
GI50 [46]: > 100 µM (inactive)
GI50 [47]: > 100 µM (inactive)
GI50 [57]: > 100 µM (inactive)
GI50 [48]: > 100 µM (inactive)
GI50 [49]: 23.3 µM (inactive)
GI50 [50]: > 100 µM (inactive)
GI50 [58]: > 100 µM (inactive)
GI50 [51]: > 100 µM (inactive)
GI50 [52]: > 100 µM (inactive)
GI50 [53]: > 100 µM (inactive)

O=C(O)c1nn[nH]c1Cl
GI50 [1]: > 100 µM (inactive)
GI50 [2]: > 100 µM (inactive)
GI50 [3]: > 100 µM (inactive)
GI50 [4]: > 100 µM (inactive)
GI50 [5]: > 100 µM (inactive)
GI50 [7]: > 100 µM (inactive)
GI50 [8]: > 100 µM (inactive)
GI50 [9]: > 100 µM (inactive)
GI50 [54]: > 100 µM (inactive)
GI50 [55]: > 100 µM (inactive)
GI50 [10]: > 100 µM (inactive)
GI50 [11]: > 100 µM
GI50 [12]: > 100 µM (inactive)
GI50 [13]: > 100 µM (inactive)
GI50 [15]: > 100 µM (inactive)
GI50 [16]: > 100 µM (inactive)
GI50 [17]: > 100 µM (inactive)
GI50 [18]: > 100 µM (inactive)
GI50 [19]: > 100 µM (inactive)
GI50 [20]: > 100 µM (inactive)
GI50 [21]: > 100 µM (inactive)
GI50 [22]: > 100 µM (inactive)
GI50 [23]: > 100 µM (inactive)
GI50 [24]: > 100 µM (inactive)
GI50 [25]: > 100 µM (inactive)
GI50 [26]: > 10 µM (inactive)
GI50 [27]: > 100 µM (inactive)
GI50 [56]: > 100 µM (inactive)
GI50 [28]: > 100 µM (inactive)
GI50 [29]: > 100 µM (inactive)
GI50 [30]: > 100 µM (inactive)
GI50 [31]: > 100 µM (inactive)
GI50 [32]: > 100 µM (inactive)
GI50 [33]: > 100 µM (inactive)
GI50 [34]: > 100 µM (inactive)
GI50 [35]: > 100 µM (inactive)
GI50 [36]: > 100 µM (inactive)
GI50 [59]: > 100 µM (inactive)
GI50 [37]: > 100 µM (inactive)
GI50 [38]: > 100 µM (inactive)
GI50 [39]: > 100 µM (inactive)
GI50 [40]: > 100 µM (inactive)
GI50 [41]: > 100 µM (inactive)
GI50 [42]: > 100 µM (inactive)
GI50 [43]: > 100 µM (inactive)
GI50 [44]: > 100 µM (inactive)
GI50 [45]: > 100 µM (inactive)
GI50 [47]: > 100 µM (inactive)
GI50 [48]: > 100 µM (inactive)
GI50 [49]: > 100 µM (inactive)
GI50 [50]: > 100 µM (inactive)
GI50 [58]: > 100 µM (inactive)
GI50 [51]: > 100 µM (inactive)
GI50 [52]: > 100 µM (inactive)
GI50 [53]: > 100 µM (inactive)
